The source of these data is ChEMBL document CHEMBL4130588, “Ubiquitin-Specific Inhibitors for the Treatment of Cancers, Autoimmune, and Infectious Diseases” (ACS Med Chem Lett, 2017).

Each structure is given as a SMILES string.

System in the first assay: not listed separately
The assay is described as follows: Inhibition of recombinant human His6-tagged USP28-5 (1 to 1077 residues) using Ub-Rh110 as substrate pretreated for 30 mins followed by substrate addition measured after 20 mins by fluorescence assay.
On to `Cc1cnc2c(N)c(C(=O)NCCc3ccc(N4CCNCC4)cc3)sc2n1`, for which the IC50 (usually the point on the concentration scale where inhibition reaches its midpoint) fell in the range of 200 to 2000 nM. The same measure, in the same setting: the figure for `Cc1cnc2c(N)c(C(=O)NCCc3cc(F)c(N4CC5CCC(C4)N5)cc3F)sc2n1` is below 200 nM; for `Cc1cnc2c(N)c(C(=O)NCCc3ccc(N4CC5CCC(C4)N5)c(F)c3)sc2n1` it is below 200 nM; for `Cc1cnc2c(N)c(C(=O)NC[C@H](C)c3ccc(N4CC5CCC(C4)N5)c(F)c3)sc2n1` it is 200 to 2000 nM. On the same count and under the same terms, the figure for `Cc1cnc2c(N)c(C(=O)NCCc3ccc(N4CCNCC4)c(Cl)c3)sc2n1` is 200 to 2000 nM; for `Cc1cnc2c(N)c(C(=O)NCCc3cc(F)c(N4CCNCC4)cc3F)sc2n1` it is 200 to 2000 nM. Still for that read-out and setting: the result for `Cc1cnc2c(N)c(C(=O)NC[C@@H](C)c3ccc(N4CC5CCC(C4)N5)c(F)c3)sc2n1` reads 200 to 2000 nM. `Cc1cnc2c(N)c(C(=O)NCCc3ccc(N4CC5CCC(C4)N5)c(Cl)c3)sc2n1`: the IC50 is below 200 nM.

In the next assay the target is T1, Ubiquitin carboxyl-terminal hydrolase 25 (Homo sapiens, UniProt Q9UHP3).
T1 sequence (Q9UHP3 whole entry): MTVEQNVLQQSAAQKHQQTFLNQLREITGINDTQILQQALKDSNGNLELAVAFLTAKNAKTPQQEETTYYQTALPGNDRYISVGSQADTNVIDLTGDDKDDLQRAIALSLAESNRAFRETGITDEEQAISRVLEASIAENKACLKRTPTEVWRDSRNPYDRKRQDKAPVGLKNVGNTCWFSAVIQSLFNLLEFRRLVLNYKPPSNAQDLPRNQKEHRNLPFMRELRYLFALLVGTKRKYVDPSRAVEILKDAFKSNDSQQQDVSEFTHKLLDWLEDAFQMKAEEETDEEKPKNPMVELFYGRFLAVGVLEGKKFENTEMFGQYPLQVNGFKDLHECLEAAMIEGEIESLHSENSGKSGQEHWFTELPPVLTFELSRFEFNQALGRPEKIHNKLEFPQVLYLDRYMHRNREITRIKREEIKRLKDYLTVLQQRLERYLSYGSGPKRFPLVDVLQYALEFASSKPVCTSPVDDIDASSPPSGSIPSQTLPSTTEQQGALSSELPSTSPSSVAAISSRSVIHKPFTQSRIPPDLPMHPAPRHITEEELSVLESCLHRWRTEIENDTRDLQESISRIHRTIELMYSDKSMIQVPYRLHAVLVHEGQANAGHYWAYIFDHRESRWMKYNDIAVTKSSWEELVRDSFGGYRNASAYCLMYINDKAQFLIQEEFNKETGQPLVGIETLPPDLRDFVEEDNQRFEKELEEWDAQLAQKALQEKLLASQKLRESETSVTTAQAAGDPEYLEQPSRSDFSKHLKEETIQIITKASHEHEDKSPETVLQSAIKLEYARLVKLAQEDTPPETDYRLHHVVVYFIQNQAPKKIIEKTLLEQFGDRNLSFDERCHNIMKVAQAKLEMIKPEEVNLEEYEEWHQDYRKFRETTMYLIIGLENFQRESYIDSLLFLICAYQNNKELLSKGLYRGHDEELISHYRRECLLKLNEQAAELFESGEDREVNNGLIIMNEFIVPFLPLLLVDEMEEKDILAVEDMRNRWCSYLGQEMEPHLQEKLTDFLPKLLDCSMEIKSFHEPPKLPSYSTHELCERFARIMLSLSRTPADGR
The assay is described as follows: Inhibition of recombinant human His6-tagged USP25 expressed in baculovirus infected Sf21 insect cells using Ub-Rh110 as substrate pretreated for 30 mins followed by substrate addition measured after 45 mins by fluorescence assay.
Turning to `Cc1cnc2c(N)c(C(=O)NCCc3cc(F)c(N4CC5CCC(C4)N5)cc3F)sc2n1`, the IC50 was 200 to 2000 nM. For the compound `Cc1cnc2c(N)c(C(=O)NCCc3ccc(N4CC5CCC(C4)N5)c(F)c3)sc2n1`, the IC50 was below 200 nM. Same read-out and setting: the result for `Cc1cnc2c(N)c(C(=O)NC[C@H](C)c3ccc(N4CC5CCC(C4)N5)c(F)c3)sc2n1` reads 2000 to 10000 nM. Turning to `Cc1cnc2c(N)c(C(=O)NCCc3cc(F)c(N4CCNCC4)cc3F)sc2n1`, the IC50 was 2000 to 10000 nM. The same measure, in the same setting: the result for `Cc1cnc2c(N)c(C(=O)NC[C@@H](C)c3ccc(N4CC5CCC(C4)N5)c(F)c3)sc2n1` reads 2000 to 10000 nM.
